Common to all, as to type: physicochemical
Series [1] is described as follows: Solubility of CNP compounds at pH 4.0 and pH 6.5. An outline of the steps:
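Supernatant peptide concentration was quantified by CAD after overnight room-temperature equilibration of incompletely dissolved samples. Nominal loading was ≥4000-5000 nmol/mL. Media were pH 4.0 sodium acetate 5 mM/glycerol 250 mM, or pH 6.5 sodium phosphate 8 mM/glycerol 23 mg/mL reached by stepwise NaOH addition.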

The nature of series [2]: Thioflavin T (ThT) assay: lagtime and peptide recovery. Conditions: assay terminated after 45 hours; for LagTime (h) at pH 4.0: ThT, 37° C., shaking; for LagTime (h) at pH 6.5: ThT assay, pH 6.5, 37° C. An outline of the steps:
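ThT (final about 1 μM) was added to peptide supernatants at pH 4.0 and 6.5 and incubated at 37 °C with orbital shaking for 45 h. Fluorescence (ex 444/em 485 nm) was read every 20 min, and lag-time was taken as the time to onset of signal rise. Recovery is the RP-UPLC (215 nm) total peak area after vs. before incubation.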

A short description of series [3]: High-Molecular-Weight-Protein (HMWP) formation by SEC-UPLC. Conditions: increase over two weeks at 37° C. An outline of the steps: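 Formulations at pH 4.0 or 6.5 incubated quiescently for two weeks at 37 °C; HMWP (peaks eluting before monomer, % of total peptide area) measured by SEC-UPLC, pH 2.4 mobile phase with 50% isopropanol, 50 °C, UV 215 nm. Value is HMWP increase, normalized to two weeks if needed.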

Where [4] appears, read: 5 mM sodium acetate, 250 mM glycerol, pH 4.0, room temperature, read-out: Solubility at pH 4.0.
[5] abbreviates: 8 mM sodium phosphate, 23 mg/mL glycerol, pH 6.5, room temperature, read-out: Solubility at pH 6.5.

Molecules are shown by their SMILES. Values after ≈ are worked out from the molar mass of the structure shown. Where two headings read alike, the source gives them in different places. Starred links: 1 amine or outer side, 2 acyl side, 3 side chain; linkers in the order of their positions; H or OH if unused. Positions of bridges follow the written chain, without caps; N, C: chain ends. Residues, ends and D or L forms follow the SMILES beside them. *: point of attachment. C18 diacid = O=C(O)CCCCCCCCCCCCCCCCC(=O)*; γGlu = O=C(O)[C@H](CCC(=O)[*:2])N[*:1]; AEEA = NCCOCCOCC(=O)O

Usually solubility stands for the concentration that dissolves in the medium under given conditions.

As to `CC[C@H](C)[C@@H]1NC(=O)[C@H](CCCNC(=N)N)NC(=O)[C@H](CC(=O)O)NC(=O)[C@H](CC(C)C)NC(=O)[C@@H]2CCCN2C(=O)[C@H](CC(C)C)NC(=O)CNC(=O)[C@H](Cc2ccccc2)NC(=O)[C@@H](NC(=O)CNC(=O)[C@H](CO)NC(=O)[C@H](CO)NC(=O)[C@@H](NC(=O)CNC(=O)[C@H](CCCCN)NC(=O)[C@H](CCCCN)NC(=O)[C@H](CCC(N)=O)NC(=O)[C@H](C)NC(=O)CNC(=O)[C@H](Cc2c[nH]cn2)NC(=O)[C@H](Cc2ccc(O)cc2)NC(=O)[C@H](CCCCN)NC(=O)[C@H](CCCNC(=N)N)NC(=O)[C@H](C)NC(=O)COCCOCCNC(=O)COCCOCCNC(=O)CC[C@H](NC(=O)CC[C@H](NC(=O)CC[C@H](NC(=O)CCCCCCCCCCCCCCCCC(=O)O)C(=O)O)C(=O)O)C(=O)O)C(C)C)CSSC[C@@H](C(=O)O)NC(=O)CNC(=O)[C@H](CC(C)C)NC(=O)CNC(=O)[C@H](CO)NC(=O)[C@H](CC(C)C)NC(=O)[C@H](CO)NC(=O)CNC1=O` [compound 1422] ({C18 diacid-γGlu-γGlu-γGlu-AEEA-AEEA}-ARKYHGAQKKGVSSGCFGLPLDRIGSLSGLGC-OH; disulfide 16-32), the solubility in series [1] (setting [4]) was determined as 8.29 mM (≈ 35.1 mg/mL). In series [2], the “LagTime (h) at pH 4.0” value was found to be 45 h. The “2-Week HMWP formation at pH 4.0 (%), % relative to total peak area” value in series [3] is given as 36%.
`CC[C@H](C)[C@@H]1NC(=O)[C@H](CCCNC(=N)N)NC(=O)[C@H](CCC(=O)O)NC(=O)[C@H](CC(C)C)NC(=O)[C@@H]2CCCN2C(=O)[C@H](CC(C)C)NC(=O)CNC(=O)[C@H](Cc2ccccc2)NC(=O)[C@@H](NC(=O)CNC(=O)[C@H](CCC(N)=O)NC(=O)[C@H](CO)NC(=O)CNC(=O)CNC(=O)[C@H](CCCCN)NC(=O)[C@H](CCCCN)NC(=O)[C@H](CCC(N)=O)NC(=O)[C@H](C)NC(=O)CNC(=O)[C@H](CCCCN)NC(=O)[C@H](Cc2ccc(O)cc2)NC(=O)COCCOCCNC(=O)COCCOCCNC(=O)COCCOCCNC(=O)COCCOCCNC(=O)CC[C@H](NC(=O)CC[C@H](NC(=O)CCCCCCCCCCCCCCCCC(=O)O)C(=O)O)C(=O)O)CSSC[C@@H](C(=O)O)NC(=O)CNC(=O)[C@H](CC(C)C)NC(=O)CNC(=O)[C@H](CO)NC(=O)[C@H](CC(C)C)NC(=O)[C@H](CO)NC(=O)CNC1=O` [compound 1489] ({C18 diacid-γGlu-γGlu-AEEA-AEEA-AEEA-AEEA}-YKGAQKKGGSQGCFGLPLERIGSLSGLGC-OH; disulfide 13-29) displayed a solubility in series [1] (pH 4) of 5.93 mM (≈ 24 mg/mL). In addition, the “LagTime (h) at pH 4.0” value in series [2] was determined as 45 h. The “2-Week HMWP formation at pH 4.0 (%), % relative to total peak area” value in series [3] worked out at 2.12%.
For the molecule `CC[C@H](C)[C@@H]1NC(=O)[C@H](CCCNC(=N)N)NC(=O)[C@H](CC(=O)O)NC(=O)[C@H](CC(C)C)NC(=O)[C@@H]2CCCN2C(=O)[C@H](CC(C)C)NC(=O)CNC(=O)[C@H](Cc2ccccc2)NC(=O)[C@@H](NC(=O)CNC(=O)[C@H](CCCCN)NC(=O)[C@H](CO)NC(=O)[C@H](CC(C)C)NC(=O)CNC(=O)[C@H](CCCCN)NC(=O)[C@H](CCCCN)NC(=O)[C@H](CCC(N)=O)NC(=O)[C@H](C)NC(=O)CNC(=O)[C@H](CCCCN)NC(=O)[C@H](Cc2ccc(O)cc2)NC(=O)[C@H](CCCCN)NC(=O)[C@H](CCCNC(=N)N)NC(=O)[C@H](C)NC(=O)COCCOCCNC(=O)COCCOCCNC(=O)CC[C@H](NC(=O)CC[C@H](NC(=O)CC[C@H](NC(=O)CC[C@H](NC(=O)CC[C@H](NC(=O)CCCCCCCCCCCCCCCCC(=O)O)C(=O)O)C(=O)O)C(=O)O)C(=O)O)C(=O)O)CSSC[C@@H](C(=O)O)NC(=O)CNC(=O)[C@H](CC(C)C)NC(=O)CNC(=O)[C@H](CO)NC(=O)[C@H](CC(C)C)NC(=O)[C@H](CO)NC(=O)CNC1=O` [compound 1470] ({C18 diacid-γGlu-γGlu-γGlu-γGlu-γGlu-AEEA-AEEA}-ARKYKGAQKKGLSKGCFGLPLDRIGSLSGLGC-OH; disulfide 16-32), the solubility in series [1] (setting [4]) amounted to 6.48 mM (≈ 29.4 mg/mL); in series [1] (setting [5]) it was 0.595 mM (≈ 2.7 mg/mL). Also, the “LagTime (h) at pH 4.0” value in series [2] stood at 45 h. In series [3], the “2-Week HMWP formation at pH 4.0 (%), % relative to total peak area” value came to 1.75%.
`CC[C@H](C)[C@@H]1NC(=O)[C@H](CCCNC(=N)N)NC(=O)[C@H](CC(=O)O)NC(=O)[C@H](CC(C)C)NC(=O)[C@@H]2CCCN2C(=O)[C@H](CC(C)C)NC(=O)CNC(=O)[C@H](Cc2ccccc2)NC(=O)[C@@H](NC(=O)CNC(=O)[C@H](CCC(N)=O)NC(=O)[C@H](CO)NC(=O)CNC(=O)CNC(=O)[C@H](CCCCN)NC(=O)[C@H](Cc2c[nH]cn2)NC(=O)[C@H](CCC(N)=O)NC(=O)[C@H](C)NC(=O)CNC(=O)[C@H](CCC(=O)O)NC(=O)[C@H](Cc2ccc(O)cc2)NC(=O)[C@H](CCCCN)NC(=O)[C@H](CCCNC(=N)N)NC(=O)[C@H](C)NC(=O)COCCOCCNC(=O)COCCOCCNC(=O)COCCOCCNC(=O)COCCOCCNC(=O)CC[C@H](NC(=O)CC[C@H](NC(=O)CCCCCCCCCCCCCCCCC(=O)O)C(=O)O)C(=O)O)CSSC[C@@H](C(=O)O)NC(=O)CNC(=O)[C@H](CC(C)C)NC(=O)CNC(=O)[C@H](CO)NC(=O)[C@H](CC(C)C)NC(=O)[C@H](CO)NC(=O)CNC1=O` [compound 1432] ({C18 diacid-γGlu-γGlu-AEEA-AEEA-AEEA-AEEA}-ARKYEGAQHKGGSQGCFGLPLDRIGSLSGLGC-OH; disulfide 16-32): the solubility in series [1] (setting [5]) is 9.83 mM (≈ 43.2 mg/mL). The “LagTime (h) at pH 6.5” value in series [2] was 45 h. Also, the “2-Week HMWP formation at pH 6.5 (%), % relative to total peak area” value in series [3] was 2.89%.
As to `CC[C@H](C)[C@@H]1NC(=O)[C@H](CCCNC(=N)N)NC(=O)[C@H](CC(=O)O)NC(=O)[C@H](CC(C)C)NC(=O)[C@@H]2CCCN2C(=O)[C@H](CC(C)C)NC(=O)CNC(=O)[C@H](Cc2ccccc2)NC(=O)[C@@H](NC(=O)CNC(=O)[C@H](CCC(N)=O)NC(=O)[C@H](CO)NC(=O)[C@H](CC(C)C)NC(=O)CNC(=O)[C@H](CCCCN)NC(=O)[C@H](CCCCN)NC(=O)[C@H](CCC(N)=O)NC(=O)[C@H](C)NC(=O)CNC(=O)[C@H](CCCCN)NC(=O)[C@H](Cc2ccc(O)cc2)NC(=O)COCCOCCNC(=O)COCCOCCNC(=O)COCCOCCNC(=O)COCCOCCNC(=O)CC[C@H](NC(=O)CC[C@H](NC(=O)CC[C@H](NC(=O)CCCCCCCCCCCCCCCCC(=O)O)C(=O)O)C(=O)O)C(=O)O)CSSC[C@@H](C(=O)O)NC(=O)CNC(=O)[C@H](CC(C)C)NC(=O)CNC(=O)[C@H](CO)NC(=O)[C@H](CC(C)C)NC(=O)[C@H](CO)NC(=O)CNC1=O` [compound 9480] ({C18 diacid-γGlu-γGlu-γGlu-AEEA-AEEA-AEEA-AEEA}-YKGAQKKGLSQGCFGLPLDRIGSLSGLGC-OH; disulfide 13-29), the figures for the solubility in series [1] (setting [4]) and in series [1] (setting [5]) were 0.023 mM (≈ 0.097 mg/mL) and 6.17 mM (≈ 26 mg/mL), respectively. Also, in series [2], the “LagTime (h) at pH 6.5” value turned out to be 45 h. For the same molecule, the “2-Week HMWP formation at pH 6.5 (%), % relative to total peak area” value in series [3] stood at 2.65%.
Regarding `CC[C@H](C)[C@@H]1NC(=O)[C@H](CCCNC(=N)N)NC(=O)[C@H](CC(=O)O)NC(=O)[C@H](CC(C)C)NC(=O)[C@@H]2CCCN2C(=O)[C@H](CC(C)C)NC(=O)CNC(=O)[C@H](Cc2ccccc2)NC(=O)[C@@H](NC(=O)CNC(=O)[C@H](CO)NC(=O)[C@H](CO)NC(=O)[C@@H](NC(=O)CNC(=O)[C@@H](NC(=O)[C@H](Cc2c[nH]cn2)NC(=O)[C@H](CCC(N)=O)NC(=O)[C@H](C)NC(=O)CNC(=O)[C@H](Cc2c[nH]cn2)NC(=O)[C@H](Cc2ccc(O)cc2)NC(=O)[C@H](CCCCN)NC(=O)[C@H](CCCNC(=N)N)NC(=O)[C@H](C)NC(=O)COCCOCCNC(=O)COCCOCCNC(=O)CC[C@H](NC(=O)CCCCCCCCCCCCCCCCC(=O)O)C(=O)O)[C@@H](C)O)C(C)C)CSSC[C@@H](C(=O)O)NC(=O)CNC(=O)[C@H](CC(C)C)NC(=O)CNC(=O)[C@H](CO)NC(=O)[C@H](CC(C)C)NC(=O)[C@H](CO)NC(=O)CNC1=O` [compound 1351] ({C18 diacid-γGlu-AEEA-AEEA}-ARKYHGAQHTGVSSGCFGLPLDRIGSLSGLGC-OH; disulfide 16-32), the solubility in series [1] (setting [4]) worked out at 6.17 mM (≈ 24.4 mg/mL). For the same molecule, in series [2], the “LagTime (h) at pH 4.0” value is 45 h. Further, the “2-Week HMWP formation at pH 4.0 (%), % relative to total peak area” value in series [3] is given as 1.94%.

The record behind these values is patent publication US20240209028A1, “CNP COMPOUNDS” (priority 2022, published 2024).
